A short description of data set [1]: Carbodiimide (EDC)-mediated conjugation of goat anti-rabbit IgG to carboxylated gold nanoparticles in presence of additive, read by lateral flow assay. The protocol: Molecules were tested initially at pH 5 in EDC-mediated reactions with carboxylated gold particles (InnovaCoat GOLD, Innova Biosciences). Potentially interesting molecules from this screening exercise were further evaluated in NHS ester reactions, isothiocyanate reactions and thiolation reactions involving iminothiolane. All of these reactions are widely used in the antibody conjugation field and all would be expected to suffer from interference in the presence of glycine.
Lateral flow test strips (4 mm wide) were prepared from nitrocellulose membrane (Millipore Hi Flow plus 90) striped with goat anti-rabbit IgG (test line) and biotin-BSA (control line). Strips were housed in plastic cartridges and samples of gold conjugate (80 ul) were added to the sample pad. Cartridges were allowed to stand for 30 min and then read using a ESE-Quant GOLD reader—QIAGEN. Each sample was spiked with a fixed amount of streptavidin-gold (Innova biosciences—Product code: 250-0200), which binds to the control line, to check that each test strip had run correctly and that test line data was valid.
10 μg of goat anti-rabbit IgG (GAR) was used per ml of coated 40 nm nanoparticles with carboxyl functionality (InnovaCoat GOLD, Innova Biosciences) at […] in the presence of additives at 50 mM final concentration. Typically reactions were set up with the following additions: 40 μl of 40 nm InnovaCoat (carboxylated) gold nanopartcles, were incubated 5 minutes with 4 μl 0.1 mg/ml GAR, 20 μl water, and 80 μl of 100 mM MES buffer containing 100 mM of additive, pH 5.0. Next, 16 μl of 1 mM EDC was added and after 10 min incubation at 22° C., 20 μl of 10×TBS/1% Tween20 and 20 μl of water was added to give 2 OD conjugate.
Gold conjugates were mixed when required with rabbit IgG ((final concentration 50 ng/ml) at 22° C. Conjugates were 0.2 OD final concentration (i.e. 1/10 dilution from stock conjugates). Samples were run in triplicate on lateral flow test strips as described in Example 1.

The conditions of data set [2]: 25° C., cited from earlier work; for pKa of buffer: neutralisation / catch / wash buffers; for pKa (COOH): Table 1.
Data set [3] is described as follows: Lightning-Link fluorescein conjugation of goat anti-rabbit IgG in presence of additive, fluorescence assay. Particulars: 50 mM additive; for % of control: conjugate 1/100 dilution, additive-free control 100%. The protocol:
Black 96-well plates (Greiner Bio-One (code 655077)) were incubated with 50 ul rabbit IgG (1 ug/well) overnight at 4° C. The plates were blocked with TBS/0.1% BSA for 1 hour at room temperature and washed five times with TBS (wash buffer). Fluorescent antibody conjugates were serially diluted in TBS/0.1% BSA and 50 ul aliquots were added to wells in triplicate. After incubation at room temperature for 1 hour, the plate was washed five times and fluorescence emission was read in using a Tecan Infinite M200 plate reader with i-Control 1.4 software with the appropriate excitation/emission settings (fluorescein, 490 nm/535 nm; phycoeythrin, 535 nm/575 nm. Fluorescence data was plotted as a function of conjugate dilution. To compare results for additives tested in different experiments the data were transformed into a percentage of a control value (i.e. the signal for conjugate prepared in the absence of any test additive).
Reactions were carried out according to the manufacturer's standard protocol except that the additives were included at up to 50 mM concentration in conjugation reactions of Goat-anti-rabbit IgG using fluorescein Lightning-Link kit (product code 707-0010, Innova Biosciences, UK). Conjugates were tested according to the protocol described in Example 2.

The nature of data set [4]: Degree of ionisation of the acid group at pH 5 (Henderson-Hasselbach). Type of data set: physicochemical.
Data set [5] in a line: Effect of additives on the thiolation reagent 2-iminothiolane (thiol release, DTNB, A405). To be noted: 50 mM additive, pH 8.0, 30 minutes. The protocol: 20 μl of 2 mM 2-iminothiolane was added to each well and mixed quickly and the absorbance values were read at 405 nm every minute for 30 minutes using a Tecan Infinite M200 plate reader with i-Control 1.4 software. […] In control reaction, there is a steady linear increase in absorbance as the reagent is hydrolysed by water. […] The rising baseline can be attributed to the known sensitivity of 2-iminothiolane to hydrolysis at alkaline pH values.

The mark [6] stands for this setting: additive 50 mM final, MES pH 5.0, EDC, lateral flow test line signal.

Data on 23 compounds can be found in US11046753B2, “Antibody composition and buffer system therefor” (INNOVA BIOSCIENCES LTD, priority 2013, dated 2021).

“Also recorded” adds a separate entry of the source.

On to `CC(=O)[O-].[Na+]` [Na Acetate, sodium acetate], for which, in data set [1] (pH 5), the “% of Signal” value turned out to be 37% and the “interference in carbodiimide-mediated antibody-gold nanoparticle conjugation reaction” value is recorded as “significant interference but not totally abolishing the conjugation reaction”.
Regarding `O=S(=O)(O)CCCCN1CCN(CCO)CC1` [HEPBS, N-(2-Hydroxyethyl)piperazine-N′-(4-butanesulfonic acid)], in data set [2], the pKa of buffer is reported as 8.3.
For `O=C(O)[C@@H]1CCCN1` [Proline], in data set [3], the “interference in Lightning-Link fluorescein conjugation reaction” value is reported as “significant interference” and the “% of control” value was 53%. For the same compound, the “% of Signal” value in data set [1] (setting [6]) is 94%. In data set [1] (pH 5, EDC), the “interference in carbodiimide-mediated antibody-gold nanoparticle conjugation reaction” value was “little or no effect”.
For the compound `NCCCC(=O)O` [GABA (Υ-Aminobutyric Acid), gamma-amino butyric acid], the “acid groups ionised (COO−)” value in data set [4] is 85.5%. Besides, the “pKa (COOH)” value in data set [2] was “pKa1 = 4.23”. Also, the “% of Signal” value in data set [1] (setting [6]) is given as 26%. Also, the “interference in carbodiimide-mediated antibody-gold nanoparticle conjugation reaction” value in data set [1] (pH 5, EDC) is on record as “significant interference; also recorded: significantly inhibits”.
Turning to `[N-]=[N+]=[N-].[Na+]` [0.01% NaN3, sodium azide], the “pKa (COOH)” value in data set [2] is listed as “pKa1 = 4.8”. For the same compound, in data set [1] (setting [6]), the “% of Signal” value worked out at 26%. In data set [1] (pH 5, EDC), the “interference in carbodiimide-mediated antibody-gold nanoparticle conjugation reaction” value is “caused interference”.
In the case of `O=C(O)c1ccccn1` [2-Picolinic Acid, 2-pyridinecarboxylic acid], in data set [2], the “pKa of the amine group” value is 5.52 and the “pKa (COOH)” value was “pKa1 = 5.52”. Also, in data set [3], the “interference in Lightning-Link fluorescein conjugation reaction” value is recorded as “modest interference” and the “% of control” value worked out at 83%. Moreover, the “% of Signal” value in data set [1] (setting [6]) is given as 100%. For the same compound, the “interference in carbodiimide-mediated antibody-gold nanoparticle conjugation reaction” value in data set [1] (pH 5, EDC, listed as 2-picolinic acid) is reported as “little or no effect”. For the same compound, the “interference in carbodiimide-mediated antibody-gold nanoparticle conjugation reaction” value in data set [1] (pH 5, EDC, listed as picolinic acid) is “without effect”.
For the compound `O=S(=O)(O)CCN1CCN(CCS(=O)(=O)O)CC1` [PIPES, piperazine-N,N′-bis(2-ethanesulfonic acid)], in data set [2], the pKa of buffer was 6.76.
Take `CNCC(=O)O` [N-Methylglycine (Sarcosine), N-methylglycine]: in data set [2], the “pKa (COOH)” value is “pKa1 = 2.36”. In addition, in data set [1] (setting [6]), the “% of Signal” value was found to be 93%. Moreover, the “interference in carbodiimide-mediated antibody-gold nanoparticle conjugation reaction” value in data set [1] (pH 5, EDC) is given as “little or no effect”.
As for `O=C(O)c1c(O)cc(O)cc1O` [2,4,6-Trihydroxy-benzoic Acid, 2,4,6-trihydroxybenzoic acid], the “pKa (COOH)” value in data set [2] is on record as “pKa1 = 1.68”. The “% of Signal” value in data set [1] (setting [6]) was found to be 0%. Moreover, the “interference in carbodiimide-mediated antibody-gold nanoparticle conjugation reaction” value in data set [1] (pH 5, EDC) was “severe interference”.
With `CC(=O)O` [acetic acid], the “interference in carbodiimide-mediated antibody-gold nanoparticle conjugation reaction” value in data set [1] (pH 5, EDC) was “greater interference in carbodiimide reactions than glycine”.
Consider `NC(CO)(CO)CO` [Tris], for which, in data set [2], the “pKa (COOH)” value is reported as “pKa1 = 8.07”. Further, the “% of Signal” value in data set [1] (setting [6]) stood at 19%. Besides, the “interference in carbodiimide-mediated antibody-gold nanoparticle conjugation reaction” value in data set [1] (pH 5, EDC) was “severe interference”.
On to `CN(C)CC(=O)O` [N,N- Dimethylglycine, N,N-dimethylglycine], for which, in data set [2], the “pKa (COOH)” value is on record as “pKa1 = 2.06”. For the same compound, in data set [3], the “interference in Lightning-Link fluorescein conjugation reaction” value is “little or no effect” and the “% of control” value amounted to 96%. In addition, in data set [1] (setting [6]), the “% of Signal” value was found to be 110%. In data set [1] (pH 5, EDC), the “interference in carbodiimide-mediated antibody-gold nanoparticle conjugation reaction” value is given as “little or no effect”.
Take `C[N+](C)(C)CC(=O)[O-]` [Glycine betaine, N,N,N-trimethylglycine]: in data set [2], the “pKa of the carboxyl (acid) group” value was 1.8 and the “pKa (COOH)” value is recorded as “pKa = 1.83”. Also, the “release of thiols from 2-iminothiolane versus control” value in data set [5] (listed as betaine) is listed as “no increase in this rate”. Further, in data set [5] (listed as glycine betaine), the “release of thiols from 2-iminothiolane versus control” value is reported as “without effect”. Also, in data set [3], the “interference in Lightning-Link fluorescein conjugation reaction” value is “little or no effect” and the “% of control” value worked out at 98%. Besides, in data set [1] (setting [6]), the “% of Signal” value is 96%. In data set [1] (pH 5, EDC), the “interference in carbodiimide-mediated antibody-gold nanoparticle conjugation reaction” value is reported as “little or no effect”.
`NCCC(=O)O` [Beta-Alanine]: the “pKa (COOH)” value in data set [2] is on record as “pKa = 3.6”. Besides, in data set [1] (setting [6]), the “% of Signal” value was determined as 92%. Also, the “interference in carbodiimide-mediated antibody-gold nanoparticle conjugation reaction” value in data set [1] (pH 5, EDC) is recorded as “little or no effect”.
In the case of `C[C@H](N)C(=O)O` [Alanine], the “% of Signal” value in data set [1] (setting [6]) is reported as 100%. For the same compound, the “interference in carbodiimide-mediated antibody-gold nanoparticle conjugation reaction” value in data set [1] (pH 5, EDC) was “little or no effect”.
On to `O=C(O)c1cccnc1` [Nicotinic Acid], for which, in data set [2], the “pKa of the carboxyl (acid) group” value is given as 2.2 and the “pKa (COOH)” value is “pKa1 = 2.201”. Also, the “% of Signal” value in data set [1] (setting [6]) came to 73%. The “interference in carbodiimide-mediated antibody-gold nanoparticle conjugation reaction” value in data set [1] (pH 5, EDC) was “significant interference; also recorded: partial interference”.
On to `O=C(O)CCC(=O)O` [Succinic Acid], for which the “% of Signal” value in data set [1] (setting [6]) is 0%. The “interference in carbodiimide-mediated antibody-gold nanoparticle conjugation reaction” value in data set [1] (pH 5, EDC) is given as “severe interference”.
As for `CCC(N)C(=O)O` (racemic) [DL-2 Aminobutyric Acid], in data set [2], the “pKa of the carboxyl (acid) group” value was 2.29 and the “pKa (COOH)” value was “pKa = 2.29”. In addition, the “% of Signal” value in data set [1] (setting [6]) was found to be 101%. Also, the “interference in carbodiimide-mediated antibody-gold nanoparticle conjugation reaction” value in data set [1] (pH 5, EDC, listed as DL-2-aminobutyric acid) is recorded as “little or no effect”. For the same compound, the “interference in carbodiimide-mediated antibody-gold nanoparticle conjugation reaction” value in data set [1] (pH 5, EDC, listed as DL-2 amino butyric acid) is “no interference”.
Take Phosphate: in data set [1] (pH 5, EDC), the “interference in carbodiimide-mediated antibody-gold nanoparticle conjugation reaction” value is reported as “caused interference”.
As to Citric Acid, the “release of thiols from 2-iminothiolane versus control” value in data set [5] (listed as Citric acid) was “no effect”; in data set [5] (listed as citric acid), “no increase in this rate”. In addition, in data set [1] (setting [6]), the “% of Signal” value turned out to be 0%. Also, the “interference in carbodiimide-mediated antibody-gold nanoparticle conjugation reaction” value in data set [1] (pH 5, EDC) is “severe interference”.
As to `O=C(O)C1CCCCC1` [Cyclohexane-carboxylic acid, cyclohexane carboxylic acid], the “% of Signal” value in data set [1] (setting [6]) was found to be 71%. For the same compound, the “interference in carbodiimide-mediated antibody-gold nanoparticle conjugation reaction” value in data set [1] (pH 5, EDC) is given as “significant interference but not totally abolishing the conjugation reaction”.
As to `CC(C)(C)C(=O)O` [Pivalic Acid], in data set [4], the “acid groups ionised (COO−)” value was approximately 50%. Moreover, in data set [1] (setting [6]), the “% of Signal” value worked out at 53%. Moreover, in data set [1] (pH 5, EDC), the “interference in carbodiimide-mediated antibody-gold nanoparticle conjugation reaction” value was “significant interference but not totally abolishing the conjugation reaction; also recorded: partial inhibition”.
As to `O=C(O)C(Cl)(Cl)Cl` [TCA, trichloroacetic acid], the “acid groups ionised (COO−)” value in data set [4] was “essentially fully ionised”. The “% of Signal” value in data set [1] (setting [6]) amounted to 0%. Besides, in data set [1] (pH 5, EDC), the “interference in carbodiimide-mediated antibody-gold nanoparticle conjugation reaction” value was “severe interference”.
